Patent EP1685120B1, “COLOURING HYDROSOLUBLE YELLOW PREPARATION DERIVED FROM DIHYDROCHALCONES” (INSTITUT NATIONAL DE LA RECHERCHE AGRONOMIQUE, priority 2003, dated 2005)
Where “and” joins values, the source holds several entries; their conditions need not be identical. Equal entries are not always repeated. Where two headings read alike, the source gives them in different places.

What was measured:
[1] = DPPH method, antioxidant capacity in methanolic medium (after Brand-Williams et al., 1995); assay type: biochemical; conditions: for TEAC (Trolox équivalent antioxidant capacity): DPPH, relative to Trolox; for capacité antioxydante: overall conclusion in words from DPPH and FRAP
From the text: (§1) Pour comparaison ou pour l'expression des résultats, les capacités antioxydantes des composés suivants ont été également mesurées : vitamine C (acide ascorbique), Trolox (analogue hydrosoluble de la vitamine E), (-)-épicatéchine, et phloridzine.
Les résultats sont présentés dans les tableaux II et III ci dessous.

[2] = FRAP method (Ferric Reducing Antioxidant Power), aqueous medium, 10 min incubation (after Pulido et al., 2000); assay type: biochemical; conditions: for EC1: antioxidant concentration with reducing power equivalent to 1 mmol/L FeSO4 7 H2O, 10 min incubation, mean of 3 (SD); for TEAC: FRAP, Trolox equivalent, (SD)
Protocol: as §1
Tableau III - Mesure de la capacité antioxydante en milieu aqueux par la méthode FRAP pour 10 minutes d'incubation (d'après Pulido et al., 2000).

[3] = values of Pulido et al. (2000); cited from earlier work
[4] = sign only; other natural yellow colourants, source not given; cited from earlier work
[5] = Molar extinction coefficient (UV-visible); assay type: physicochemical
From the text: Une solution à 20 ppm de ce composéest jaune intense.
Le spectre UV-visible d'une solution de préparation POP a été mesuré pour différents pH entre 2 et 8 (voir figure 1). Des mesures de couleur (chromamètre Minolta) ont également été réalisées dans cette zone de pH. Les résultats détaillés des paramètres colorimétriques sont consignés ci-après.

[6] = Optical density at 420 nm of the esterification reaction medium (colouring capacity); assay type: physicochemical; conditions: unpurified POP fraction incubated with acidified alcohol, 50 °C, 1 h
From the text: Le volume d'alcool est ajusté de façon à avoir une concentration finale en fraction POP de 1 g.L^-1. Les alcools suivants ont été testés : méthanol, propanol-1, propanol-2, butanol-1, butanol-3, hexanol-1, octanol-1.
Confirmation de la conversion en esters : la formation des esters correspondant a été montrée par HPLC couplée à la spectrométrie de masse en mode négatif et avec également en série une détection à 420 nm (jaune). […] Tableau I: Temps de rétention chromatographique, ions pseudo-moléculaires et rendements de conversion du composé de formule I-b-1 et de ses dérivés estérifiés.

[7] = tested on: cellules TC-7; assay: Cytotoxicity test, cell viability by neutral red method; assay type: cell-based; conditions: for % Témoin / DO Moyenne: 2 h; for % Témoin: cell viability; for DO Moyenne: mean of 5
Protocol: Cellules TC-7 (sous clone de caco-2) cultivées sur nacelles (membrane en polyéthylène téréphtalate), utilisées à 21 jours de confluence, fournie par Bioprédic International
Emploi des cellules au passage 21.
Pas de solvant utilisé pour la solubilisation des produits à l'essai.
Système réactionnel : cultures de cellules TC-7 incubées en présence des produits à l'essai aux différentes concentrations citées ci-dessus.
Temps d'incubation : 2 heures. [drawing 6] ↑ : incubation des produits à l'essai ? : évaluation des effets Replicate : 5 par concentrations. Température d'incubation : 37°C. Autres conditions : atmosphère humide contenant 5 % de CO2.
Témoin : correspondant aux cellules incubées en absence de produit à l'essai [drawing 8] Replicate : 10
Viabilité cellulaire mesurée selon la méthode du rouge neutre après incubation avec les produits à l'essai : • incubation en présence de rouge neutre pendant 3 heures • lyse des cellules et lecture de la densité optique avec un spectrophotomètre à 540 nm (la densité optique du rouge neutre est proportionnelle au nombre de cellules vivantes).
Expression des résultats : en unités arbitraires de D.O.(densité optique) par échantillon et en pourcentage de variation par rapport au groupe témoin.

[8] = Colorimetric parameters CIE L*a*b* (Minolta CM-3600d spectrophotometer) in Mc Ilvaine buffer; assay type: physicochemical; set-up: key to L* : luminosité / a* : axe vert-rouge / b* : axe bleu-jaune: CIE L*a*b* coordinates (illuminant D65, 10° observer)
From the text: Les paramètres de coloration du colorant par rapport à de l'eau distillée (référence) ont été mesurés en solution dans un tampon de M^c Ilvaine (citrate-phosphate) à différents pH (2,2 à 8) et ce, pour plusieurs concentrations.
Les mesures ont été réalisées à l'aide d'un spectrophotomètre Minolta CM-3600d (©1998 Minolta Co., Ltd. Japon) avec la plaque de calibration (Minolta n° 13171008). Le spectrophotomètre équipé d'un logiciel de retraitement SpectraMagic V 3.60G (Cyberchrome Inc Minolta Co. Ltd), a été paramétré pour utiliser l'espace colorimétrique CIE L*a*b (Figure 2), avec l'illuminant D65-10° (D65-A-F2), et l'observateur moyen normalisé 10° CIE 1964 (sensibilité d'un oeil moyen). A partir des valeurs a* et b* nous avons calculé les coordonnées polaires C* = sqrt(((a*))^2 + ((b*))^2) et h = tan g^-1 ((a*)/(b*)) × (180)/(Pi) [formula] Dans la suite du texte nous exploiterons principalement ces coordonnées polaires C* et h, car elles ont chacune une signification colorimétrique : C* est la distance au centre de l'espace et correspond à la saturation de la couleur alors que h est un angle (exprimé ici en degré) qui définit la teinte. A titre indicatif pour la couleur rouge la teinte se situe au voisinage de 0°, pour le jaune environ 90°, pour le vert 180° et pour le bleu 270°. La valeur L* est utilisée telle quelle et exprime la clarté.

[9] = 5 mg/L, pH 3, tampon de Mc Ilvaine
[10] = 10 mg/L, pH 3, tampon de Mc Ilvaine
[11] = 20 mg/L, pH 3, tampon de Mc Ilvaine
[12] = 40 mg/L, pH 3, tampon de Mc Ilvaine
[13] = 100 mg/L, pH 3, tampon de Mc Ilvaine
[14] = pH 2,2, env. 20 mg/L, tampon de Mc Ilvaine
[15] = pH 3, env. 20 mg/L, tampon de Mc Ilvaine
[16] = pH 4, env. 20 mg/L, tampon de Mc Ilvaine
[17] = pH 5, env. 20 mg/L, tampon de Mc Ilvaine
[18] = pH 6, env. 20 mg/L, tampon de Mc Ilvaine
[19] = pH 7, env. 20 mg/L, tampon de Mc Ilvaine
[20] = pH 8, env. 20 mg/L, tampon de Mc Ilvaine

O=C(O)CCc1cc(O)c(O)cc1-c1c(O)cc(O)cc1C1O[C@H](CO)[C@@H](O)[C@H](O)[C@H]1O (stereo partly drawn) [I-a-1, acide 3-(4,5,4',6'-tetrahydroxy-2'-glucosyl-biphenyl-2-yl)-propionique]
TEAC (Trolox équivalent antioxidant capacity) [1]: 0,78
capacité antioxydante, fold over phloridzine ([1]; overall conclusion from DPPH and FRAP): 10 fois
capacité antioxydante [1]: capacité antioxydante importante
EC1 [2]: 477 (15) µmol/L

O=C1O[C@H]([C@@H](O)CO)C(O)=C1O [Vitamine C, acide ascorbique]
TEAC (Trolox équivalent antioxidant capacity) [1]: 0,98
TEAC [2]: 1.03 (0.02)
EC1 [2]: 400 (9) µmol/L
EC1 ([2]; listed as vitamine C): 400 µmol/L
EC1 [3]: 392

Oc1cc(O)c2c(c1)O[C@H](c1ccc(O)c(O)c1)[C@H](O)C2 [(-)-épicatéchine]
TEAC (Trolox équivalent antioxidant capacity) [1]: 1,12
TEAC [2]: 1.14 (0.03)
EC1 [2]: 359 µmol/L and 359 (11) µmol/L
EC1 [3]: 348

O=c1c(O)c(-c2ccc(O)c(O)c2)oc2cc(O)cc(O)c12 [quercétine]
logP (P coeff. de partage [n-octanol/eau]) [4]: positif

O=C(CCc1ccc(O)cc1)c1c(O)cc(O)cc1O[C@@H]1O[C@H](CO)[C@@H](O)[C@H](O)[C@H]1O [Phloridzine, phloridzine, reference compound]
TEAC (Trolox équivalent antioxidant capacity) [1]: 0,09
capacité antioxydante [1]: très faible
TEAC [2]: 0.08 (0.00)

Cc1c(C)c2c(c(C)c1O)CCC(C)(C(=O)O)O2 (stereo not drawn) [Trolox]
TEAC (Trolox équivalent antioxidant capacity) [1]: 1,00
TEAC [2]: 1.00 (0.02)
EC1 [2]: 411 µmol/L and 411 (10) µmol/L
EC1 [3]: 322

acide 3-(4'-hydroxy-2'-glucosyl-4,5-dioxo-3,6-dihydro-2H-dibenzofuran-2-yl)-propionique [I-b-1]
TEAC (Trolox équivalent antioxidant capacity) [1]: 0,09
capacité antioxydante [1]: faible capacité antioxydante
coefficient d'extinction molaire ([5]; 420 nm à pH 3, estimated): 17400 mol⁻¹ cm⁻¹
coefficient d'extinction molaire ε ([5]; pH 3): 17 400 DO.mol^-1.L^-2.cm^-1
DO 420 nm (jaune) du milieu réactionnel dilué à 0,1 g/l [6]: 0,973
% Témoin ([7]; 20 µM): 101%
DO Moyenne ([7]; 20 µM): 0,489
% Témoin ([7]; 100 µM): 104%
DO Moyenne ([7]; 100 µM): 0,504
% Témoin ([7]; 200 µM): 96%
DO Moyenne ([7]; 200 µM): 0,467
effet sur la viabilité cellulaire ([7]; 1000 µM): une légère diminution de la viabilité cellulaire
% Témoin ([7]; 1000 µM): 104%
DO Moyenne ([7]; 1000 µM): 0,504
% Témoin ([7]; 2000 µM): 93%
DO Moyenne ([7]; 2000 µM): 0,448
effet sur la viabilité cellulaire ([7]; at the tested concentrations (20-2000 µM)): n'a pas eu d'effet sur la viabilité cellulaire
effet sur la viabilité cellulaire ([7]; jusqu'à 200 µM): Aucun effet inhibiteur de référence n'a été noté
L* : luminosité [8, 9]: 99,6
Teinte CIE [8, 9]: 3,5
a* : axe vert-rouge [8, 9]: -4,6
b* : axe bleu-jaune [8, 9]: 11,5
L* : luminosité [8, 10]: 99,3
Teinte CIE [8, 10]: 6,7
a* : axe vert-rouge [8, 10]: -8,5
b* : axe bleu-jaune [8, 10]: 22,8
L* : luminosité [8, 11]: 98,7
Teinte CIE [8, 11]: 11,1
a* : axe vert-rouge [8, 11]: -13,6
b* : axe bleu-jaune [8, 11]: 41,5
L* : luminosité [8, 12]: 97,9
Teinte CIE [8, 12]: 14,3
a* : axe vert-rouge [8, 12]: -17,7
b* : axe bleu-jaune [8, 12]: 67,1
L* : luminosité [8, 13]: 96,5
Teinte CIE [8, 13]: 10,4
a* : axe vert-rouge [8, 13]: -17,8
b* : axe bleu-jaune [8, 13]: 96,0
L* : luminosité [8, 14]: 98,7
Teinte CIE [8, 14]: 11,2
a* : axe vert-rouge [8, 14]: -13,5
b* : axe bleu-jaune [8, 14]: 40,7
L* : luminosité [8, 15]: 98,5
Teinte CIE [8, 15]: 11,0
a* : axe vert-rouge [8, 15]: -13,4
b* : axe bleu-jaune [8, 15]: 41,1
L* : luminosité [8, 16]: 98,4
Teinte CIE [8, 16]: 10,2
a* : axe vert-rouge [8, 16]: -13,2
b* : axe bleu-jaune [8, 16]: 42,3
L* : luminosité [8, 17]: 97,5
Teinte CIE [8, 17]: 5,9
a* : axe vert-rouge [8, 17]: -11,4
b* : axe bleu-jaune [8, 17]: 46,7
L* : luminosité [8, 18]: 93,5
Teinte CIE [8, 18]: -20,5
a* : axe vert-rouge [8, 18]: -0,1
b* : axe bleu-jaune [8, 18]: 57,7
L* : luminosité [8, 19]: 88,1
Teinte CIE [8, 19]: -63,5
a* : axe vert-rouge [8, 19]: 16,3
b* : axe bleu-jaune [8, 19]: 71,4
L* : luminosité [8, 20]: 87,1
Teinte CIE [8, 20]: -71,8
a* : axe vert-rouge [8, 20]: 19,5
b* : axe bleu-jaune [8, 20]: 72,2
Teinte CIE ([8]; pH inférieur à 5-6 (yellow)): 10
Teinte CIE ([8]; pH supérieurs (orange)): -50

COc1cc(/C=C/C(=O)CC(=O)/C=C/c2ccc(O)c(OC)c2)ccc1O [curcumine]
logP (P coeff. de partage [n-octanol/eau]) [4]: positif
